# According to patent publication US20130274338A1, “PHARMACEUTICAL COMPOSITIONS COMPRISING DGLA, 15-OHEPA, AND/OR 15-HETRE AND METHODS OF REDUCING SEBUM PRODUCTION USING SAME” (priority 2012, published 2013):
# System: P. acnes
# Assay: Agar dilution method, growth of P. acnes and MIC, combinations with a fatty acid spike
# Type: cell-based, Propionibacterium acnes
# Set-up: key to Growth Index Plate 1 / Growth Index Plate 2 / Growth Index Plate 3 / Growth Index Avg: +++: confluent growth (comparable to control); ++: less confluent growth; +: marked reduction in growth to multiple tiny, single colonies; −: no growth present
# Experimental: Several compounds including fatty acids such as DGLA, 15-OHEPA, and 15-HETrE were tested to determine their capacity to inhibit the growth of P. acnes. In an exemplary method, an agar dilution method was used to determine the minimum inhibitory concentration (MIC) of each tested compound. Briefly, the agar dilution method involved preparing a series of concentrations of each compound (e.g., nicotinamide, benzoyl peroxide, adapalene, metronidazole, DGLA, 15-OHEPA, and 15-HETrE) in a Reinforced Clostridial Agar (RCA) media that facilitates growth of P. acnes under anaerobic conditions. An inoculum of P. acnes was prepared by incubation of P. acnes for approximately seven days at 35-37° C. to achieve a ≧1.0 OD600 inoculum of P. acnes in RCM broth. A portion of this inoculum was then added to the surface of each plate as a 10 μL spot and incubated at 35-37° C. for 72 hours or more. Growth of P. acnes was then observed and compared to control plates in which no compound has been added, and positive inhibition plates prepared with erythromycin. […] The growth of P. acnes in the presence of nicotinamide, benzoyl peroxide, adapalene, metronidazole, DGLA, 15-OHEPA, and 15-HETrE was determined with varying concentrations of the compound (see, Table 2). Next, the MIC was determined as the concentration at which a marked reduction (+) occurs in the appearance of growth on the test plate (as per Clinical and Laboratory Standards Institute M11-A7).
# The compounds tested singly in Example 1 were tested in combination with one another to determine the capacity of the combination to inhibit the growth of P. acnes. In an exemplary method, the MIC was determined for each of the combination as described in Example 1. Briefly, test combinations included DGLA with nicotinamide, benzoyl peroxide, adapalene, or metronidazole; 15-HETrE with nicotinamide, benzoyl peroxide, adapalene, or metronidazole; and 15-OHEPA with nicotinamide, benzoyl peroxide, adapalene, or metronidazole. The tables below show the growth of P. acnes in the presence of 0.4 or 1.0 mg/mL DGLA with varying concentrations of nicotinamide, benzoyl peroxide, adapalene, or metronidazole (Table 3); the growth of P. acnes in the presence of 0.01 or 0.05 mg/mL 15-HETrE with varying concentrations of nicotinamide, benzoyl peroxide, adapalene, or metronidazole (Table 5); and the growth of P. acnes in the presence of 0.5 or 0.1 mg/mL 15-OHEPA with varying concentrations of nicotinamide, benzoyl peroxide, adapalene, or metronidazole (Table 7).
# [1] = compound at 0.2 mg/mL + 0.01 mg/mL 15-HETrE
# [2] = compound at 0.2 mg/mL + 0.05 mg/mL 15-HETrE
# [3] = compound at 0.2 mg/mL + 0.05 mg/mL 15-OHEPA
# [4] = compound at 0.2 mg/mL + 0.1 mg/mL 15-OHEPA
# [5] = compound at 0.2 mg/mL + 0.4 mg/mL dGLA
# [6] = compound at 0.2 mg/mL + 1.0 mg/mL dGLA
# [7] = compound at 0.4 mg/mL + 0.01 mg/mL 15-HETrE
# [8] = compound at 0.4 mg/mL + 0.05 mg/mL 15-HETrE
# [9] = compound at 0.4 mg/mL + 0.05 mg/mL 15-OHEPA
# [10] = compound at 0.4 mg/mL + 0.1 mg/mL 15-OHEPA
# [11] = compound at 0.4 mg/mL + 0.4 mg/mL dGLA
# [12] = compound at 0.4 mg/mL + 1.0 mg/mL dGLA
# [13] = compound at 0.6 mg/mL + 0.01 mg/mL 15-HETrE
# [14] = compound at 0.6 mg/mL + 0.05 mg/mL 15-HETrE
# [15] = compound at 0.6 mg/mL + 0.05 mg/mL 15-OHEPA
# [16] = compound at 0.6 mg/mL + 0.1 mg/mL 15-OHEPA
# [17] = compound at 0.6 mg/mL + 0.4 mg/mL dGLA
# [18] = compound at 0.6 mg/mL + 1.0 mg/mL dGLA
# [19] = compound at 0.8 mg/mL + 0.01 mg/mL 15-HETrE
# [20] = compound at 0.8 mg/mL + 0.05 mg/mL 15-HETrE
# [21] = compound at 0.8 mg/mL + 0.05 mg/mL 15-OHEPA
# [22] = compound at 0.8 mg/mL + 0.1 mg/mL 15-OHEPA
# [23] = compound at 0.8 mg/mL + 0.4 mg/mL dGLA
# [24] = compound at 0.8 mg/mL + 1.0 mg/mL dGLA
# [25] = compound at 1.0 mg/mL + 0.01 mg/mL 15-HETrE
# [26] = compound at 1.0 mg/mL + 0.05 mg/mL 15-HETrE
# [27] = compound at 1.0 mg/mL + 0.05 mg/mL 15-OHEPA
# [28] = compound at 1.0 mg/mL + 0.1 mg/mL 15-OHEPA
# [29] = compound at 1.0 mg/mL + 0.4 mg/mL dGLA
# [30] = compound at 1.0 mg/mL + 1.0 mg/mL dGLA
compound,measurement,setting,value
O=C(OOC(=O)c1ccccc1)c1ccccc1 [Benzoyl Peroxide],Growth Index Avg,[1],+++
same,Growth Index Plate 1,[1],+++
same,Growth Index Plate 2,[1],+++
same,Growth Index Plate 3,[1],+++
same,Growth Index Avg,[2],−
same,Growth Index Plate 1,[2],−
same,Growth Index Plate 2,[2],−
same,Growth Index Plate 3,[2],−
same,Growth Index Avg,[3],+++
same,Growth Index Plate 1,[3],+++
same,Growth Index Plate 2,[3],+++
same,Growth Index Plate 3,[3],+++
same,Growth Index Avg,[4],−
same,Growth Index Plate 1,[4],−
same,Growth Index Plate 2,[4],−
same,Growth Index Plate 3,[4],−
same,Growth Index Avg,[5],+++
same,Growth Index Plate 1,[5],+++
same,Growth Index Plate 2,[5],+++
same,Growth Index Plate 3,[5],+++
same,Growth Index Avg,[6],++
same,Growth Index Plate 1,[6],++
same,Growth Index Plate 2,[6],++
same,Growth Index Plate 3,[6],+
same,Growth Index Avg,[7],+++
same,Growth Index Plate 1,[7],+++
same,Growth Index Plate 2,[7],+++
same,Growth Index Plate 3,[7],+++
same,Growth Index Avg,[8],−
same,Growth Index Plate 1,[8],−
same,Growth Index Plate 2,[8],−
same,Growth Index Plate 3,[8],−
same,Growth Index Avg,[9],++
same,Growth Index Plate 1,[9],++
same,Growth Index Plate 2,[9],++
same,Growth Index Plate 3,[9],++
same,Growth Index Avg,[10],−
same,Growth Index Plate 1,[10],−
same,Growth Index Plate 2,[10],−
same,Growth Index Plate 3,[10],−
same,Growth Index Avg,[11],−
same,Growth Index Plate 1,[11],+
same,Growth Index Plate 2,[11],−
same,Growth Index Plate 3,[11],−
same,Growth Index Avg,[12],−
same,Growth Index Plate 1,[12],−
same,Growth Index Plate 2,[12],+
same,Growth Index Plate 3,[12],−
same,Growth Index Avg,[13],++
same,Growth Index Plate 1,[13],++
same,Growth Index Plate 2,[13],++
same,Growth Index Plate 3,[13],++
same,Growth Index Avg,[14],−
same,Growth Index Plate 1,[14],−
same,Growth Index Plate 2,[14],−
same,Growth Index Plate 3,[14],−
same,Growth Index Avg,[15],+
same,Growth Index Plate 1,[15],+
same,Growth Index Plate 2,[15],+
same,Growth Index Plate 3,[15],+
same,Growth Index Avg,[16],−
same,Growth Index Plate 1,[16],−
same,Growth Index Plate 2,[16],−
same,Growth Index Plate 3,[16],−
same,Growth Index Avg,[17],−
same,Growth Index Plate 1,[17],−
same,Growth Index Plate 2,[17],−
same,Growth Index Plate 3,[17],−
same,Growth Index Avg,[18],−
same,Growth Index Plate 1,[18],−
same,Growth Index Plate 2,[18],−
same,Growth Index Plate 3,[18],−
same,Growth Index Avg,[19],+
same,Growth Index Plate 1,[19],+
same,Growth Index Plate 2,[19],+
same,Growth Index Plate 3,[19],+
same,Growth Index Avg,[20],−
same,Growth Index Plate 1,[20],−
same,Growth Index Plate 2,[20],−
same,Growth Index Plate 3,[20],−
same,Growth Index Avg,[21],−
same,Growth Index Plate 1,[21],−
same,Growth Index Plate 2,[21],−
same,Growth Index Plate 3,[21],−
same,Growth Index Avg,[22],−
same,Growth Index Plate 1,[22],−
same,Growth Index Plate 2,[22],−
same,Growth Index Plate 3,[22],−
same,Growth Index Avg,[23],−
same,Growth Index Plate 1,[23],−
same,Growth Index Plate 2,[23],−
same,Growth Index Plate 3,[23],−
same,Growth Index Avg,[24],−
same,Growth Index Plate 1,[24],−
same,Growth Index Plate 2,[24],−
same,Growth Index Plate 3,[24],−
same,Growth Index Avg,[25],−
same,Growth Index Plate 1,[25],−
same,Growth Index Plate 2,[25],−
same,Growth Index Plate 3,[25],−
same,Growth Index Avg,[26],−
same,Growth Index Plate 1,[26],−
same,Growth Index Plate 2,[26],−
same,Growth Index Plate 3,[26],−
same,Growth Index Avg,[27],−
same,Growth Index Plate 1,[27],−
same,Growth Index Plate 2,[27],−
same,Growth Index Plate 3,[27],−
same,Growth Index Avg,[28],−
same,Growth Index Plate 1,[28],−
same,Growth Index Plate 2,[28],−
same,Growth Index Plate 3,[28],−
same,Growth Index Avg,[29],−
same,Growth Index Plate 1,[29],−
same,Growth Index Plate 2,[29],−
same,Growth Index Plate 3,[29],−
same,Growth Index Avg,[30],−
same,Growth Index Plate 1,[30],−
same,Growth Index Plate 2,[30],−
same,Growth Index Plate 3,[30],−
same,"growth of P. Acnes in combination with 15-HETrE, compared with 15-HETrE used alone",in combination with 15-HETrE,did not reduce the growth
